Legend:
Test in all cases: relative viability (nuclei count vs DMSO), 5 days (fraction); higher = more cells survive
BMX-IN-1 + AZD7762 = compound: C=CC(=O)Nc1cc(-n2c(=O)ccc3cnc4ccc(-c5ccc(NS(C)(=O)=O)cc5)cc4c32)ccc1C [BMX-IN-1] + NC(=O)Nc1cc(-c2cccc(F)c2)sc1C(=O)N[C@H]1CCCNC1 [AZD7762] (partner 0.2 µM)
In short: (§1)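 Relative viability equals treated-well nuclei counts divided by vehicle-well nuclei counts. Counts came from 4× images of lung cancer cell lines grown in 1536-well plates for 5 days after pin-tool dosing on the day after seeding. Dosing used one drug alone or a fixed anchor-drug dose plus five library-drug doses (not always all listed) in √10 steps, and values are medians of duplicate plates.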

Ibrutinib + AZD7762 = compound: C=CC(=O)N1CCC[C@@H](n2nc(-c3ccc(Oc4ccccc4)cc3)c3c(N)ncnc32)C1 [Ibrutinib] + NC(=O)Nc1cc(-c2cccc(F)c2)sc1C(=O)N[C@H]1CCCNC1 [AZD7762] (partner 0.2 µM)
In short: as §1

PAC-1 + Olaparib = compound: C=CCc1cccc(/C=N/NC(=O)CN2CCN(Cc3ccccc3)CC2)c1O [PAC-1] + O=C(c1cc(Cc2n[nH]c(=O)c3ccccc23)ccc1F)N1CCN(C(=O)C2CC2)CC1 [Olaparib] (partner 8 µM)
In short: as §1

Ibrutinib + Lapatinib = compound: C=CC(=O)N1CCC[C@@H](n2nc(-c3ccc(Oc4ccccc4)cc3)c3c(N)ncnc32)C1 [Ibrutinib] + CS(=O)(=O)CCNCc1ccc(-c2ccc3ncnc(Nc4ccc(OCc5cccc(F)c5)c(Cl)c4)c3c2)o1 [Lapatinib] (partner 2 µM)
In short: as §1

Cell Line	relative viability (BMX-IN-1 + AZD7762; first compound 0.02 µM)	relative viability (BMX-IN-1 + AZD7762; first compound 0.2 µM)	relative viability (BMX-IN-1 + AZD7762; first compound 0.6325 µM)	relative viability (BMX-IN-1 + AZD7762; first compound 2 µM)	relative viability (Ibrutinib + AZD7762; first compound 0.005 µM)	relative viability (Ibrutinib + AZD7762; first compound 0.01581 µM)	relative viability (Ibrutinib + AZD7762; first compound 0.05 µM)	relative viability (Ibrutinib + AZD7762; first compound 0.1581 µM)	relative viability (Ibrutinib + AZD7762; first compound 0.5 µM)	relative viability (PAC-1 + Olaparib; first compound 0.02 µM)	relative viability (PAC-1 + Olaparib; first compound 0.06325 µM)	relative viability (PAC-1 + Olaparib; first compound 0.2 µM)	relative viability (PAC-1 + Olaparib; first compound 2 µM)	relative viability (Ibrutinib + Lapatinib; first compound 0.005 µM)	relative viability (Ibrutinib + Lapatinib; first compound 0.01581 µM)	relative viability (Ibrutinib + Lapatinib; first compound 0.05 µM)	relative viability (Ibrutinib + Lapatinib; first compound 0.1581 µM)	relative viability (Ibrutinib + Lapatinib; first compound 0.5 µM)
HOP-62	0.606	0.627	0.724	0.65	0.53	0.662	0.651	0.867	0.626	0.408	0.273	0.438	0.502	1.04	0.922	1.08	1.13	1.12
NCI-H727	0.574	0.585	0.635	0.541	0.404	0.664	0.524	0.416	0.555	0.753	0.715	0.568	0.68	0.734	0.735	1.2	0.496	0.852
ChaGo-K-1	1.02	1.02	0.885	0.907	0.85	0.798	0.894	0.833	0.838	0.419	0.412	0.416	0.404	–	–	–	–	–
BEN	0.747	0.706	0.69	0.707	0.473	0.61	0.637	0.506	0.697	1.14	1.05	0.885	0.872	–	0.791	0.519	0.526	0.551
NCI-H596	1.07	1.36	1.23	1.04	0.996	1.15	1.32	–	0.928	0.633	0.715	0.607	0.665	1.86	1.1	1.02	0.988	1.08
LU99A	0.393	0.416	0.415	0.288	0.258	0.357	0.338	0.438	0.288	0.247	0.282	0.271	0.257	0.936	1.08	1.1	1.04	0.995
NCI-H460	0.725	0.566	0.768	0.735	0.634	0.563	0.646	0.622	0.659	0.4	0.457	0.466	0.369	1.18	0.892	0.96	0.94	1.11
NCI-H1648	0.498	0.758	0.747	0.67	0.697	0.66	0.673	0.762	0.865	0.573	0.646	0.889	0.832	–	–	–	–	–
HCC-44	0.989	0.941	1.01	1.11	1.11	–	–	–	1.07	1.05	0.906	0.963	0.986	1.09	0.948	1.02	1.08	1.02
NCI-H647	0.492	0.583	0.71	0.62	0.413	0.534	0.529	0.3	0.497	0.616	0.492	0.544	0.236	0.799	0.934	1.06	1.11	1.19
Calu-6	–	–	–	–	–	–	–	–	–	0.546	0.585	–	0.61	1.07	1.04	0.98	1.13	–
201T	0.728	0.63	0.662	0.56	0.539	0.583	0.623	0.66	0.553	0.817	0.859	0.857	0.818	1.04	0.983	1.08	0.968	1.02
CAL-12T	0.665	0.76	0.647	0.613	0.701	0.69	0.544	0.616	0.766	0.719	0.701	0.72	0.695	0.615	0.67	0.711	0.647	0.683
HCC-78	0.662	0.64	0.587	0.726	–	0.732	0.251	0.452	0.592	0.8	0.893	0.874	0.827	1.27	0.812	0.57	0.398	0.399
LK-2	0.397	0.297	0.323	0.41	0.31	0.513	0.438	0.405	0.25	0.774	0.704	0.673	0.837	0.602	0.93	0.956	0.877	0.769
NCI-H522	1.07	0.914	0.769	0.846	0.847	0.698	0.683	0.766	0.751	0.591	0.643	0.619	0.626	–	–	–	–	–
NCI-H322M	0.532	0.559	0.714	0.485	0.432	0.527	0.514	0.486	0.502	0.762	0.782	0.74	0.834	0.527	0.652	0.621	0.512	0.585
COR-L 105	–	–	–	–	–	–	–	–	–	0.753	0.723	0.631	0.789	0.36	0.402	0.368	0.314	0.337
LOU-NH91	–	0.806	0.865	0.753	0.684	0.701	0.717	0.801	0.754	0.884	0.908	0.92	0.879	0.638	0.786	0.774	0.737	0.694
PC-3 [JPC-3]	0.886	0.925	0.918	0.847	0.631	0.588	0.478	–	0.445	1.04	1.15	1.1	1.09	0.389	0.45	0.439	0.413	0.444
NCI-H2228	–	–	–	–	–	–	–	–	–	0.619	0.607	0.619	0.646	0.746	0.974	0.833	0.884	1.1
NCI-H1650	–	–	–	–	–	–	–	–	–	0.709	0.751	0.726	0.674	0.685	0.734	0.843	0.682	0.844
LCLC-103H	0.824	0.887	0.773	0.82	0.829	0.706	0.733	0.835	0.745	0.771	0.824	0.761	0.745	–	–	–	–	–

Cell Line	relative viability (BMX-IN-1 + AZD7762; first compound 0.02 µM)	relative viability (BMX-IN-1 + AZD7762; first compound 0.2 µM)	relative viability (BMX-IN-1 + AZD7762; first compound 0.6325 µM)	relative viability (BMX-IN-1 + AZD7762; first compound 2 µM)	relative viability (Ibrutinib + AZD7762; first compound 0.005 µM)	relative viability (Ibrutinib + AZD7762; first compound 0.01581 µM)	relative viability (Ibrutinib + AZD7762; first compound 0.05 µM)	relative viability (Ibrutinib + AZD7762; first compound 0.1581 µM)	relative viability (Ibrutinib + AZD7762; first compound 0.5 µM)	relative viability (PAC-1 + Olaparib; first compound 0.02 µM)	relative viability (PAC-1 + Olaparib; first compound 0.06325 µM)	relative viability (PAC-1 + Olaparib; first compound 0.2 µM)	relative viability (PAC-1 + Olaparib; first compound 2 µM)	relative viability (Ibrutinib + Lapatinib; first compound 0.005 µM)	relative viability (Ibrutinib + Lapatinib; first compound 0.01581 µM)	relative viability (Ibrutinib + Lapatinib; first compound 0.05 µM)	relative viability (Ibrutinib + Lapatinib; first compound 0.1581 µM)	relative viability (Ibrutinib + Lapatinib; first compound 0.5 µM)
HCC-15	0.591	1.24	1.35	1.29	1.33	1.25	1.19	1.25	1.4	0.644	0.775	0.69	0.771	1.01	0.819	0.877	0.835	0.865
UMC-11	–	–	–	–	–	–	–	–	–	0.411	0.366	0.366	0.377	0.545	0.978	1.1	0.87	0.907
NCI-H2087	1.67	1.44	1.3	1.42	1.77	1.19	1.04	–	1.21	0.53	0.504	0.579	0.451	1.09	1.17	0.986	1.03	1.11
NCI-H3122	1.22	1.16	1.11	1.07	1.16	0.946	1.03	0.885	0.992	0.635	0.634	0.624	0.566	0.953	1.03	1.04	0.948	0.99
NCI-H661	–	–	–	–	–	–	–	–	–	0.664	0.721	0.684	0.505	0.414	0.504	0.489	0.571	0.426
NCI-H1703	0.132	–	–	0.143	–	0.126	–	0.148	0.19	0.376	0.401	0.388	0.341	–	–	1.06	1.16	0.684
NCI-H2342	0.454	0.484	0.492	0.447	0.317	0.6	0.499	0.472	0.345	0.442	0.474	0.367	0.525	–	–	–	–	–
NCI-H838	1.06	1.01	0.956	1.01	0.739	0.876	0.985	0.946	0.943	0.715	0.735	0.727	0.656	0.796	0.893	1	0.894	1.08
ABC-1	0.761	0.848	0.82	0.868	0.904	0.863	0.807	0.759	0.695	0.781	0.668	0.848	0.741	1.14	1.19	1.29	1.19	1.26
NCI-H441	1.12	1.03	0.997	1.39	1.18	1.15	1.22	1.28	0.952	0.468	0.69	0.483	0.491	–	–	–	–	–
NCI-H2126	1.03	1.06	1.16	1.04	0.776	0.966	0.962	0.986	0.958	0.896	0.871	0.941	0.886	–	0.726	0.756	0.741	0.706
NCI-H2023	–	–	–	–	–	–	–	–	–	0.468	0.425	0.449	0.257	0.622	0.711	0.772	0.818	0.868
NCI-H2009	–	–	–	–	–	–	–	–	–	0.681	0.655	0.677	0.652	0.952	0.945	0.94	0.65	0.988
SW 1573	–	–	–	–	–	–	–	–	–	0.446	0.426	0.442	0.41	1.01	1.22	1.3	1	1.22
SW 900	0.656	0.636	0.735	0.666	0.472	0.565	0.597	0.513	0.512	–	1.07	0.85	0.718	–	–	–	–	–
NCI-H1299	–	–	–	–	–	–	–	–	–	0.947	0.933	0.937	0.895	0.973	0.984	0.977	0.979	0.969
EBC-1	–	–	–	–	–	–	–	–	–	0.551	0.713	0.713	0.649	0.199	0.197	0.219	0.186	0.238
IA-LM	–	–	–	–	–	–	–	–	–	0.806	0.964	0.952	0.833	0.792	0.827	0.592	1.1	0.814
NCI-H520	–	–	–	–	–	–	–	–	–	0.382	0.383	0.361	0.33	0.788	0.789	0.934	0.907	0.78
NCI-H1563	–	–	–	–	–	–	–	–	–	–	–	–	–	0.867	0.866	0.959	0.945	1.02
COR-L23	–	–	–	–	–	–	–	–	–	0.308	0.334	–	0.379	1.24	0.948	–	0.964	0.982
A549	–	–	–	–	–	–	–	–	–	0.344	0.353	0.285	0.477	0.931	0.916	1.05	1.08	1.02
SK-LU-1	–	–	–	–	–	–	–	–	–	0.405	0.465	0.455	0.414	0.88	0.76	0.838	0.937	0.905

Reference: the supplement of paper PMC10307832
